The results in this text go back to patent US10246414B2, “Allosteric modulators of CB1 cannabinoid receptors” (Northeastern University, priority 2012, dated 2019).

The structures appear in SMILES notation. Where only a bound is given, the exact number is not on record here.

Chain of CB1 cannabinoid receptors (CNR1 cAMP Hunter cell line) (P21554 whole entry): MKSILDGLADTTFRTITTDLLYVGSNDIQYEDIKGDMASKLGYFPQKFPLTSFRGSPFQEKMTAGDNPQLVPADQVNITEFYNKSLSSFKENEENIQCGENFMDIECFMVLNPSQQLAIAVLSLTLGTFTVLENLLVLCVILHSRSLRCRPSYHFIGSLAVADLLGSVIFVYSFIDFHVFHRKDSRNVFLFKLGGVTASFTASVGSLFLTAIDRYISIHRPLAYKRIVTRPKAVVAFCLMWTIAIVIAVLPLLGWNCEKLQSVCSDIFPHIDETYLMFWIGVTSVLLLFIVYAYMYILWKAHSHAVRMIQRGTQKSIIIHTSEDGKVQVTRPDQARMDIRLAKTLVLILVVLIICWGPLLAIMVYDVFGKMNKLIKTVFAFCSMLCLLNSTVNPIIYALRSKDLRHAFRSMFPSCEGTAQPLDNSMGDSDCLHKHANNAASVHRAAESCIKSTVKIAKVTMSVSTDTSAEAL

One assay addresses CB1 cannabinoid receptors (CNR1 cAMP Hunter cell line) (Homo sapiens, UniProt P21554). As to the kind of experiment: cAMP Hunter (DiscoveRx HitHunter cAMP XS+) allosteric modulation assay with CP55,940 at EC20. The assay is classed as cell-based.
Settings: not given
On the procedure:
Once it was established that the cells were healthy and growing normally, cells were passaged from flasks using cell dissociation reagent buffer and seeded into white walled clear bottom 384-well microplates for compound profiling. For profiling, cells were seeded at a density of 10000 cells per well in a total volume of 20 μL and were allowed to adhere and recover overnight prior to compound addition. Cells were treated the following day using the protocols shown below. cAMP modulation was determined using the DiscoveRx HitHunter cAMP XS+ assay.
Media was aspirated from cells and replaced with 10 μL 1:1 HBSS/Hepes: cAMP XS+Ab reagent. Agonist (CP55,940) dose curves were performed to determine the EC20 value for the following testing with compounds. 5 μL of 4× agonist was added to each well with an equal concentration of vehicle present. EC20 agonist concentration was determined directly from agonist dose curve.
For allosteric determination, cells were preincubated with compound followed by agonist challenge at the EC20 concentration. 5 μL of 4× compound was added to cells and incubated at 37° C. for 30 minutes. 5 μL of 4× EC20 agonist was added to cells and incubated at 37° C. for 30 minutes.
Signal Detection: After appropriate compound incubation, assay signal was generated through incubation with 20 μL cAMP XS+ED/CL lysis cocktail for one hour followed by incubation with 20 μL cAMP XS+EA reagent for three hours at room temperature. Microplates were read following signal generation with a PerkinElmer Envision™ instrument for chemiluminescent signal detection.
Data Analysis: Dose curves were plotted using GraphPad Prism or Activity Base. The percentage activity is calculated using the following formula: % Activity=100%×(1−(mean RLU of test sample−mean RLU of MAX control)/(mean RLU of vehicle control [EC20 for PAM]−mean RLU of MAXcontrol).
Agonist (CP55,940) dose curves were performed for the CNR1 PathHunter and cAMP Hunter cell lines. […] The cAMP assay was performed in the presence of 20 μM forskolin (EC80).
Take `O=[N+]([O-])C[C@H](c1ccccn1)c1c(-c2ccccc2)[nH]c2ccccc12` (single isomer, unassigned) [Compound 11]: the EC50 (in general, the concentration at which the effect is half-maximal) worked out at 300 nM and the Emax (as a rule, the size of the effect at its maximum, as opposed to the concentration needed) is 120%.
Take `O=[N+]([O-])CC(c1ccccc1)c1c(-c2ccccc2)[nH]c2ccccc12` (racemic) [Compound 1, 3-(2-Nitro-1-phenylethyl)-2-phenyl-1H-indole, reference compound]: the Emax came to 80%.
Take `O=[N+]([O-])CC(c1ccccc1)c1c(-c2ccc(F)c(Cl)c2)[nH]c2ccccc12` (stereo not shown) [Compound 15, 2-(3-Chloro-4-fluorophenyl)-3-(2-nitro-1-phenylethyl)-1H-indole]: the EC50 is 411 nM and the Emax was found to be 110%.
With `O=[N+]([O-])c1cccc(-c2c(-c3ccccc3)[nH]c3ccccc23)c1` [Compound 8, 3-(3-Nitrophenyl)-2-phenyl-1H-indole], the EC50 is over 10000 nM and the Emax is 54%.
`O=[N+]([O-])C[C@H](c1ccccc1)c1c(-c2ccccc2)[nH]c2ccccc12` (single isomer, unassigned) [Compound 2] yielded an Emax of 75%.
With `O=[N+]([O-])C[C@@H](c1ccccc1)c1c(-c2ccccc2)[nH]c2ccccc12` (single isomer, unassigned) [Compound 3], the Emax was determined as 96%.
Consider `O=[N+]([O-])CC(c1ccccc1)c1c(-c2ccc(Cl)cc2)[nH]c2ccccc12` (stereo not shown) [Compound 14, 2-(4-Chlorophenyl)-3-(2-nitro-1-phenylethyl)-1H-indole], for which the EC50 came out at 650 nM and the Emax turned out to be 115%.
`O=[N+]([O-])C[C@@H](c1ccccn1)c1c(-c2ccccc2)[nH]c2ccccc12` (single isomer, unassigned) [Compound 12] displayed an EC50 of 417 nM and an Emax of 119%.
The compound `O=[N+]([O-])CC(c1ccccc1)c1c(-c2ccccc2)[nH]c2ccc(Cl)cc12` (stereo not shown) [Compound 7, 5-Chloro-3-(2-nitro-1-phenylethyl)-2-phenyl-1H-indole] returned an EC50 of 1010 nM and an Emax of 44%.
`O=[N+]([O-])CC(c1ccccc1)c1c(-c2ccc(F)cc2)[nH]c2ccccc12` (stereo not shown) [Compound 13, 2-(4-Fluorophenyl)-3-(2-nitro-1-phenylethyl)-1H-indole]: the response was half-maximal at 327 nM (EC50) and the Emax was 110%.
The like results for `O=[N+]([O-])CC(c1ccccn1)c1c(-c2ccccc2)[nH]c2ccccc12` (racemic) [Compound 10, 3-(2-Nitro-1-(pyridin-2-yl)ethyl)-2-phenyl-1H-indole] were, in that order, 456 nM and 96%.
The compound `O=[N+]([O-])CC(c1ccc(-c2ccccc2)cc1)c1c(-c2ccccc2)[nH]c2ccccc12` (stereo not shown) [Compound 5, 3-(1-([1,1′-Biphenyl]-4-yl)-2-nitroethyl)-2-phenyl-1H-indole] had an EC50 of over 10000 nM and an Emax of 0%.
For the compound `O=[N+]([O-])CC(c1ccc(N2CCCCC2)cc1)c1c(-c2ccccc2)[nH]c2ccccc12` (stereo not shown) [Compound 4, 3-(2-Nitro-1-(4-(piperidin-1-yl)phenyl)ethyl)-2-phenyl-1H-indole], the EC50 came to 590 nM and the Emax came to 101%.
`O=[N+]([O-])CC(c1ccccc1)c1c(-c2ccc3ccccc3c2)[nH]c2ccccc12` (stereo not shown) [Compound 6] yielded an EC50 of 744 nM and an Emax of 65%.
The like results for `O=[N+]([O-])CC(c1ccccc1)c1cn(-c2ccccc2)c2ccccc12` (stereo not shown) [Compound 9, 3-(2-Nitro-1-phenylethyl)-1-phenyl-1H-indole] were, in that order, 920 nM and 105%.

For a further assay, the system named is extracellular dopamine levels in nucleus accumbens. The assay is described as follows: In vivo microdialysis, dopamine in shell of nucleus accumbens. Set-up: species or system Sprague-Dawley male rats. Particulars: 30 mg/kg IP, rat nucleus accumbens shell, dialysate samples every 20 minutes; ANOVA p=0.325, NS. The protocol:
Concentric microdialysis probes with 2 mm-long dialysis membranes were prepared as described previously (Pontieri, Tanda & DiChiara 1995). Sprague-Dawley male rats were anesthetized with Equithesin and probes were surgically implanted in the shell of nucleus accumbens (coordinates with respect to bregma: anterior, +2.2; lateral, −1.0; vertical −8.0 from dura). Ringer's solution (147 mM NaCl, 2.2 mM CaCl2, 4.0 mM KCl) was pumped through the dialysis probe at a constant flow rate of 1 uL/minute. […] Collection of dialysate samples started after 20 minutes, with samples collected every 20 minutes and immediately analyzed by a high-performance liquid chromatography system coupled to electrochemical detection to quantify dopamine.
Results are presented as group means (±SEM). Microdialysis data were analyzed using two-way ANOVA.
As to `O=[N+]([O-])CC(c1ccccc1)c1c(-c2ccccc2)[nH]c2ccccc12` (racemic) [Compound 1, 3-(2-Nitro-1-phenylethyl)-2-phenyl-1H-indole, reference compound], the “change in extracellular dopamine levels after injection” value is recorded as “no significant change”.
